From PubChem BioAssay AID228 (DTP/NCI, 2004)
Values joined by “and” are separate entries in the source; they are usually repeats but may differ in a detail not shown here. Equal values may be shown once. Inconclusive results are not listed.

Tested on: BDF1 mice, Friend leukemia sc, tumor weight T/C
Test: NCI In Vivo Anticancer Drug Screen. Data for tumor model Friend Virus Leukemia (Solid) (subcutaneous) in B6D2F1 (BDF1) mice
Conditions: endpoint: mean tumor weight, higher = larger tumour
Procedure: The antitumor activity of compounds was measured in mice bearing transplantable tumors. Survival or tumor size were measured and the results are expressed as the measurement made in the treated group (T) divided by the measurement made in the vehicle treated control group (C). The tumor model used in this assay is Friend Virus Leukemia (Solid) (subcutaneous) in B6D2F1 (BDF1) mice

Row | SMILES | T/C (dose: 9.0 mg/kg/injection, schedule: Q01DX011 (sc), vehicle: steriod suspending solution) | T/C (dose: 19.0 mg/kg/injection, schedule: Q01DX011 (sc), vehicle: steriod suspending solution) | T/C (dose: 37.5 mg/kg/injection, schedule: Q01DX011 (sc), vehicle: steriod suspending solution) | T/C (dose: 38.0 mg/kg/injection, schedule: Q01DX011 (sc), vehicle: steriod suspending solution) | T/C (dose: 75.0 mg/kg/injection, schedule: Q01DX011 (sc), vehicle: steriod suspending solution) | T/C (dose: 150.0 mg/kg/injection, schedule: Q01DX011 (sc), vehicle: steriod suspending solution) | T/C (dose: 300.0 mg/kg/injection, schedule: Q01DX011 (sc), vehicle: steriod suspending solution) | T/C (dose: 600.0 mg/kg/injection, schedule: Q01DX011 (sc), vehicle: steriod suspending solution) | T/C (dose: 2.0 mg/kg/injection, schedule: Q01DX011 (ip), vehicle: carboxymethylcellulose (CMC)) | T/C (dose: 4.0 mg/kg/injection, schedule: Q01DX011 (ip), vehicle: carboxymethylcellulose (CMC))
1 | CC(C)(CC(=O)O)CC(=O)OCC(=O)[C@@]1(O)CC[C@H]2[C@@H]3CCC4=CC(=O)C=C[C@]4(C)[C@H]3[C@@H](O)C[C@@]21C | 61 % of control | 58 % of control | 48 % of control | 50 % of control | 46 % of control and 47 % of control | 46 % of control and 47 % of control | 37 % of control and 38 % of control | 31 % of control |  | 
2 | CCC[CH2][Sn]([CH2]CCC)([CH2]CCC)[O]C(=O)CC[S][Sn]([CH2]CCC)([CH2]CCC)[CH2]CCC |  |  |  |  |  |  |  |  | 108 % of control | 82 % of control
